This note sets out measurements from patent US20240287138A1, “CYCLIC PEPTIDES FOR INHIBITING TNF RECEPTOR 1 ACTIVITY” (Merck Sharp & Dohme LLC, priority 2023, published 2024).

Like-named read-outs stand apart in the source and are kept apart here. Numbered stars: 1 amine (or outer) side, 2 acyl side, 3 side chain; on linkers, the order of the positions; unused ones are H or OH. Square brackets hold non-standard residues; d marks the D form. Peptide text beside a SMILES is read from it. * marks the point of attachment. Trp(βS-Me,7-OMe) = COc1cccc2c([C@H](C)[C@H](N)C(=O)O)c[nH]c12; Trp(1-CH2COOH) = N[C@@H](Cc1cn(CC(=O)O)c2ccccc12)C(=O)O; Phe(4-SO2NH2) = N[C@@H](Cc1ccc(S(N)(=O)=O)cc1)C(=O)O; dPro(trans-4-NMe2) = CN(C)[C@@H]1CN[C@@H](C(=O)O)C1; Trp(7-CN) = N#Cc1cccc2c(C[C@H](N)C(=O)O)c[nH]c12; X20 = O=C1NCc2ccc(C[C@H](N[*:1])C(=O)[*:2])cc21; Phe(3-CONH2) = NC(=O)c1cccc(C[C@H](N)C(=O)O)c1; Phe(4-CONH2) = NC(=O)c1ccc(C[C@H](N)C(=O)O)cc1; Phe(4-COOH) = N[C@@H](Cc1ccc(C(=O)O)cc1)C(=O)O; dPro(trans-4-F) = O=C(O)[C@H]1C[C@H](F)CN1; dPro(4S-NH2) = N[C@@H]1CN[C@@H](C(=O)O)C1; Pip(5R-OH) = O=C(O)[C@@H]1CC[C@@H](O)CN1; X1 = O=C([C@@H]1CC[C@H](N[*:1])C1)[*:2]; 4Pal = N[C@@H](Cc1ccncc1)C(=O)O; dHyp = O=C(O)[C@H]1C[C@H](O)CN1; αMeS = C[C@](N)(CO)C(=O)O; Carboxymethyl = O=C(O)C*; Nle = CCCC[C@H](N)C(=O)O; Sar = CNCC(=O)O

The target in test [1] is T1, human soluble TNFR1 (sTNFR1) (Homo sapiens, UniProt P19438).
T1 construct: made in house; host or cells: Sf21 (baculovirus)
T1 sequence (P19438 with tags, fused parts or gaps): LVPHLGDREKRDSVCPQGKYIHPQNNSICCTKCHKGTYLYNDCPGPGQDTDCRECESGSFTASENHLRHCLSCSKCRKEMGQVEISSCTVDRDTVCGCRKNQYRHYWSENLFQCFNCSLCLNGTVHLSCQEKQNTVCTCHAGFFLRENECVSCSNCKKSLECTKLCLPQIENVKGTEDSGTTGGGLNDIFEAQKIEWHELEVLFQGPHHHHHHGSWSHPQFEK
Put plainly: Human sTNFR1-peptide displacement assay (LanthaScreen Eu TR-FRET binding assay). The method, boiled down: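 Readout is the 665/615 nm TR-FRET ratio (Eu anti-His donor, streptavidin-Alexa647 acceptor), normalized to DMSO and saturating displacer, fit by Morrison-based five-parameter logistic for Kd^app. His-tagged sTNFR1 (1-211) prebound to 100 nM biotinylated peptide SEQ ID NO.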
A general note: TR-FRET usually uses a lanthanide donor and a delayed reading to cut background.

The target of test [2] is T2, human TNFR1 extracellular domain (ECD) protein (Homo sapiens, UniProt P19438).
T2 construct: HRV 3C protease cleavage site (C); 6His (C, cleaved yes); made in house; host or cells: Sf21 insect cells (baculovirus), secreted
T2 sequence (P19438 30-211): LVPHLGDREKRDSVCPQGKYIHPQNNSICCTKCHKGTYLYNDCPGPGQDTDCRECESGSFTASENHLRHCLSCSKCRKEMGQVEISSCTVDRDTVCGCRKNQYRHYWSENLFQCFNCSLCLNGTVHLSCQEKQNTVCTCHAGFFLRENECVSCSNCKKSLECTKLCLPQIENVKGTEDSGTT
The experiment in a line: SPR binding affinity to captured human TNFR1 ECD. The method, boiled down: (§1)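 Insect-cell human receptor ECDs, enzymatically biotinylated, immobilized via streptavidin capture chip. Peptide binding and dissociation measured in RU in pH 7.4 HEPES buffer containing 2% DMSO; chip regenerated per analyte. Rate constants give affinity.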
In general terms: Surface plasmon resonance follows binding to a sensor surface in real time, without labels.

The target in another test is T3, human TNFR2 ECD protein (Homo sapiens, UniProt P20333).
T3 construct: HRV 3C protease cleavage site (C); 6His (C, cleaved yes); made in house; host or cells: Sf21 insect cells (baculovirus), secreted
T3 sequence (P20333 23-257): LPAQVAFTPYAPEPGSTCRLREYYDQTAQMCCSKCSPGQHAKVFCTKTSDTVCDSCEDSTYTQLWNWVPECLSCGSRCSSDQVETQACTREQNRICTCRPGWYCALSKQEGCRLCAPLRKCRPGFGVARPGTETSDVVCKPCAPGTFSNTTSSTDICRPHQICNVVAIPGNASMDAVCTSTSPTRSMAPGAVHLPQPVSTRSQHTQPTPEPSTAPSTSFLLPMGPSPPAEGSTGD
The experiment in a line: SPR off-target binding (selectivity) to human TNFR2 ECD. The gist of the method:
as §1

[3] abbreviates: displacement of biotinylated peptide SEQ ID NO. 1 from sTNFR1, 20 point titration, 5-parameter fit based on Morrison equation (tight binding), read-out: TR-FRET Kd^app.
Setting [4] is: biotinylated human TNFR1 ECD on streptavidin chip, from kon and koff, read-out: SPR hTNFR1 KD.
Setting [5] is: biotinylated human TNFR2 ECD on streptavidin chip, read-out: SPR hTNFR2 KD.

Take `CCCC[C@@H]1NC(=O)[C@@H]2CC[C@@H](C2)NC(=O)[C@H]([C@@H](C)c2c[nH]c3c(OC)cccc23)NC(=O)CN(C)C(=O)[C@H](Cc2ccc(C(N)=O)cc2)NC(=O)[C@H](Cc2ccc(S(N)(=O)=O)cc2)NC(=O)[C@](C)(CO)NC(=O)[C@H](Cc2c[nH]c3c(C#N)cccc23)NC(=O)[C@H](Cc2ccc(C(=O)O)cc2)NC(=O)[C@H](CC(N)=O)NC(=O)[C@H]2C[C@H](N(C)C)CN2C(=O)[C@H](Cc2cn(CC(=O)O)c3ccccc23)NC(=O)[C@@H]2CC[C@@H](O)CN2C(=O)[C@H](Cc2ccncc2)NC1=O` [SEQ ID NO. 2] (cyclo([4Pal][Pip(5R-OH)][Trp(1-CH2COOH)][dPro(trans-4-NMe2)]N[Phe(4-COOH)][Trp(7-CN)][αMeS][Phe(4-SO2NH2)][Phe(4-CONH2)][Sar][Trp(βS-Me,7-OMe)][X1][Nle])): the Kd in test [1] was 0.07 nM; in test [2], 0.07 nM; on human TNFR2 ECD protein, greater than 1000 nM.

Consider `CCCC[C@@H]1NC(=O)[C@@H]2CC[C@@H](C2)NC(=O)[C@H]([C@@H](C)c2c[nH]c3c(OC)cccc23)NC(=O)CN(C)C(=O)[C@H](Cc2ccc(OCC(=O)O)cc2)NC(=O)[C@H](Cc2ccc(S(N)(=O)=O)cc2)NC(=O)[C@](C)(CO)NC(=O)[C@H](Cc2c[nH]c3c(C#N)cccc23)NC(=O)[C@H](Cc2ccc(OCC(=O)O)cc2)NC(=O)[C@H](CC(N)=O)NC(=O)[C@H]2C[C@H](N)CN2C(=O)[C@H](Cc2cn(CC(=O)O)c3ccccc23)NC(=O)[C@@H]2CC[C@@H](O)CN2C(=O)[C@H](Cc2ccncc2)NC1=O` [SEQ ID NO. 18] (cyclo([4Pal][Pip(5R-OH)][Trp(1-CH2COOH)][dPro(4S-NH2)]NY(Carboxymethyl)[Trp(7-CN)][αMeS][Phe(4-SO2NH2)]Y(Carboxymethyl)[Sar][Trp(βS-Me,7-OMe)][X1][Nle])), for which the Kd in test [1] (setting [3]) is 0.08 nM; in test [2] (setting [4]), 0.05 nM; at human TNFR2 ECD protein (setting [5]) it was greater than 1000 nM.

For the compound `CCCC[C@@H]1NC(=O)[C@@H]2CC[C@@H](C2)NC(=O)[C@H]([C@@H](C)c2c[nH]c3c(OC)cccc23)NC(=O)CN(C)C(=O)[C@H](Cc2cccc(C(N)=O)c2)NC(=O)[C@H](Cc2ccc(C(N)=O)cc2)NC(=O)[C@](C)(CO)NC(=O)[C@H](Cc2c[nH]c3c(C#N)cccc23)NC(=O)[C@H](Cc2ccc(C(=O)O)cc2)NC(=O)[C@H](CC(N)=O)NC(=O)[C@H]2C[C@H](F)CN2C(=O)[C@H](Cc2c[nH]c3ccccc23)NC(=O)[C@@H]2CC[C@@H](O)CN2C(=O)[C@H](Cc2ccncc2)NC1=O` [SEQ ID NO. 21] (cyclo([4Pal][Pip(5R-OH)]W[dPro(trans-4-F)]N[Phe(4-COOH)][Trp(7-CN)][αMeS][Phe(4-CONH2)][Phe(3-CONH2)][Sar][Trp(βS-Me,7-OMe)][X1][Nle])), the Kd in test [1] was 0.04 nM; in test [2], 0.03 nM; at human TNFR2 ECD protein it was greater than 1000 nM.

With `CCCC[C@@H]1NC(=O)[C@@H]2CC[C@@H](C2)NC(=O)[C@H]([C@@H](C)c2c[nH]c3c(OC)cccc23)NC(=O)CN(C)C(=O)[C@H](Cc2ccc(C(N)=O)cc2)NC(=O)[C@H](Cc2ccc(C(N)=O)cc2)NC(=O)[C@](C)(CO)NC(=O)[C@H](Cc2c[nH]c3c(C#N)cccc23)NC(=O)[C@H](Cc2ccc3c(c2)C(=O)NC3)NC(=O)[C@H](CC(N)=O)NC(=O)[C@H]2C[C@H](OCC(=O)O)CN2C(=O)[C@H](Cc2cn(CC(=O)O)c3ccccc23)NC(=O)[C@@H]2CC[C@@H](O)CN2C(=O)[C@H](Cc2ccncc2)NC1=O` [SEQ ID NO. 22] (cyclo([4Pal][Pip(5R-OH)][Trp(1-CH2COOH)][dHyp](Carboxymethyl)N[X20][Trp(7-CN)][αMeS][Phe(4-CONH2)][Phe(4-CONH2)][Sar][Trp(βS-Me,7-OMe)][X1][Nle])), the Kd was 0.08 nM in test [1] (setting [3]), 0.09 nM in test [2] (setting [4]) and greater than 1000 nM on human TNFR2 ECD protein (setting [5]).
